# Measured values taken from patent publication US20260125370A1, “SULFOXIMINE COMPOUNDS AS HISTONE DEACETYLASE 6 INHIBITOR, AND PHARMACEUTICAL COMPOSITION COMPRISING THE SAME” (CHONG KUN DANG PHARMACEUTICAL CORP., priority 2022, published 2026).
# How the values were obtained:
# human recombinant HDAC6 = molecular target: T1, human recombinant HDAC6 (Homo sapiens, UniProt Q9UBN7); assay: HDAC6 enzyme activity inhibition (fluorimetric, in vitro); format: biochemical; conditions: samples at 0.1, 1, 10, 100 and 1000 nM
# T1 construct: purchased Calbiochem 382180
# T1 sequence (Q9UBN7 1-1215): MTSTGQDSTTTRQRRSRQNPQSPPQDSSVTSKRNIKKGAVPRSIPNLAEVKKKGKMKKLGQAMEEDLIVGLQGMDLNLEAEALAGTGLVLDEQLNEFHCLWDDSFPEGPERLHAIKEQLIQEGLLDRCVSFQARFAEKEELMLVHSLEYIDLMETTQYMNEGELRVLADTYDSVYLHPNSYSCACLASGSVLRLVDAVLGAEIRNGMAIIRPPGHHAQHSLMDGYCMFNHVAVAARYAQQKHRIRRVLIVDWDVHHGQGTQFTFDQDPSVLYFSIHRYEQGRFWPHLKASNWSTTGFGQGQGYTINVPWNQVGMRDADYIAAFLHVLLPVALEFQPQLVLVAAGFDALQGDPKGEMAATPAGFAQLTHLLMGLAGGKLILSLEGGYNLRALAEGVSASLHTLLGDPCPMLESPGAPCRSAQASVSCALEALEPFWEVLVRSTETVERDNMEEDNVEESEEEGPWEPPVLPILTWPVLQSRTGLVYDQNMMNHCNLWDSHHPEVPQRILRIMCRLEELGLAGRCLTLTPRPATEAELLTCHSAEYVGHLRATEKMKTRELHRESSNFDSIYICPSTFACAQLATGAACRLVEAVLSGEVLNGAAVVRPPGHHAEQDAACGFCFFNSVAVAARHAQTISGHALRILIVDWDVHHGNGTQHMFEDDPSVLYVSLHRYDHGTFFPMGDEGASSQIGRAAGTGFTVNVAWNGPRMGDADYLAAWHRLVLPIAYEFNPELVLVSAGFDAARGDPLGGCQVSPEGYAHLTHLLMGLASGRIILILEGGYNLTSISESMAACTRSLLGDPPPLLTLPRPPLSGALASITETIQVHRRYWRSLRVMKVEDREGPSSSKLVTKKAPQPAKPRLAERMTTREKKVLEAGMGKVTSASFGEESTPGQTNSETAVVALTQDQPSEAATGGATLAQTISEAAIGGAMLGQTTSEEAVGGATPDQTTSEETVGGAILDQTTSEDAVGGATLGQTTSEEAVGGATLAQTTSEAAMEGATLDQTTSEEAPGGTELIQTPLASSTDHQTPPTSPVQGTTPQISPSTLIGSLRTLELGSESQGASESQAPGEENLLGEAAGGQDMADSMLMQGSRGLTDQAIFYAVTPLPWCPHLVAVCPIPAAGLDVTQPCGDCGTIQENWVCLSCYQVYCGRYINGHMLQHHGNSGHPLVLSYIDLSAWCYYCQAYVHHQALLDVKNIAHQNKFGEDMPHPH
# Description: (§1) A HDAC enzyme inhibitory capacity of a test material was measured by using HDAC1 Fluorimetric Drug Discovery Assay Kit (Enzolifesciences: BML-AK511) and HDAC6 human recombinant (Calbiochem: 382180). For a HDAC1 assay, samples were treated at a concentration of 100, 1000 and 10000 nM. For a HDAC6 assay, samples were treated at a concentration of 0.1, 1, 10, 100 and 1000 nM.
# (§2) For the test on the HDAC1 enzyme activity, human recombinant HDAC1 (BML-SE456) was used as a zymogen and Fluor de Lys®-SIRT1 (BNL-KI177) was used as a substrate. A 5-fold dilution of the compound was divided into a 96-well plate, after which 0.3 μg of the enzyme and […] of the substrate were inserted into each well and subjected to reaction at 37° C. for 60 minutes, such that Fluor de Lys® Developer II (BML-K1176) was inserted thereinto and subjected to reaction for 30 minutes and finished. After that, a fluorescence value (Ex 360, Em 460) was measured with a multi-plate reader (FlexStation 3, Molecular Device). An experiment on HDAC6 enzyme was conducted in accordance with the same protocol as in the HDAC1 enzyme activity test method by using human recombinant HDAC6 (382180) of Calbiochem Inc. For final result values, each IC50 value was calculated with GraphPad Prism 4.0 program.
# human recombinant HDAC1 = molecular target: T2, human recombinant HDAC1 (Homo sapiens, UniProt Q13547); assay: HDAC1 enzyme activity inhibition (HDAC1 Fluorimetric Drug Discovery Assay Kit, in vitro); format: biochemical; conditions: samples at 100, 1000 and 10000 nM
# T2 construct: purchased Enzolifesciences BML-SE456
# T2 sequence (Q13547 whole entry): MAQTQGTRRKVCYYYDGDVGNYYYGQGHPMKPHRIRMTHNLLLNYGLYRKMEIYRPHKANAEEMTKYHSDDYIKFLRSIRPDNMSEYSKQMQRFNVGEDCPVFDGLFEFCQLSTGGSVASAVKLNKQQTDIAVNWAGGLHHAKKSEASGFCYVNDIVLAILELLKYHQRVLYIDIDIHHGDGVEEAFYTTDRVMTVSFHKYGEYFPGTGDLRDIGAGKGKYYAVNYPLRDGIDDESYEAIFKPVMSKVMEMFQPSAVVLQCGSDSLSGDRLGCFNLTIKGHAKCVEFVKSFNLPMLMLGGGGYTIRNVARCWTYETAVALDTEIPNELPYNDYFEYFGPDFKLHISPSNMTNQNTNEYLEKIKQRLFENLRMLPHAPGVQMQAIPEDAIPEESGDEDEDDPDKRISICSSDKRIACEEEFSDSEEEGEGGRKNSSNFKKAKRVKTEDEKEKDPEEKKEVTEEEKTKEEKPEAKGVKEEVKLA
# Description: as §1, §2
Compound,IC50 (human recombinant HDAC6),IC50 (human recombinant HDAC1)
"N=S1(=O)CCN(C(=O)N(Cc2ccc(-c3nnc(C(F)F)o3)cc2F)c2ccsc2)CC1 [Compound 26, N-(4-(5-(difluoromethyl)-1,3,4-oxadiazol-2-yl)-2-fluorobenzyl)-1-imino-N-(thiophen-3-yl)thiomorpholin-4-carboxamide 1-oxide]",98.6 nM,> 10000 nM
"N=S1(=O)CCN(C(=O)N(Cc2ccccc2)Cc2ccc(-c3nnc(C(F)F)o3)cc2F)CC1 [Compound 24, N-benzyl-N-(4-(5-(difluoromethyl)-1,3,4-oxadiazol-2-y1)-2-fluorobenzyl)-1-iminothiomorpholin-4-carboxamide 1-oxide]",1010 nM,> 10000 nM
"CS(=N)(=O)c1ccc(N(Cc2ccc(-c3nnc(C(F)F)o3)cc2F)C(=O)N2CCS(=N)(=O)CC2)cc1 (stereo not shown) [Compound 11, N-(4-(5-(difluoromethyl)-1,3,4-oxadiazol-2-yl)-2-fluorobenzyl)-1-imino-N-(4-(S-methylsulfonimidoyl)phenyl)thiomorpholin-4-carboxamide 1-oxide]",1420 nM,> 10000 nM
"N=S1(=O)CCN(C(=O)N(Cc2ccc(-c3nnc(C(F)F)o3)cc2F)c2ccc(F)c(F)c2)CC1 [Compound 6, N-(4-(5-(difluoromethyl)-1,3,4-oxadiazol-2-yl)-2-fluorobenzyl)-N-(3,4-difluorophenyl)-1-iminothiomorpholin-4-carboxamide 1-oxide]",50 nM,> 10000 nM
"N=S1(=O)CCN(C(=O)N(Cc2ccc(-c3nnc(C(F)F)o3)cc2F)c2ccc3c(c2)CCO3)CC1 [Compound 22, N-(4-(5-(difluoromethyl)-1,3,4-oxadiazol-2-y1)-2-fluorobenzyl)-N-(2,3-dihydrobenzofuran-5-yl)-1-iminothiomorpholin-4-carboxamide 1-oxide]",75.2 nM,> 10000 nM
"COc1ccccc1N(Cc1ccc(-c2nnc(C(F)F)o2)cc1F)C(=O)N1CCS(=N)(=O)CC1 [Compound 25, N-(4-(5-(difluoromethyl)-1,3,4-oxadiazol-2-y1)-2-fluorobenzyl)-1-imino-N-(2-methoxyphenyl)thiomorpholin-4-carboxamide 1-oxide]",141 nM,> 10000 nM
"N=S1(=O)CCN(C(=O)N(Cc2ccc(-c3nnc(C(F)F)o3)cc2F)c2cccc(-n3cccc3)c2)CC1 [Compound 34, N-(3-(1H-pyrrol-1-yl)phenyl)-N-(4-(5-(difluoromethyl)-1,3,4-oxadiazol-2-y1)-2-fluorobenzyl)-1-iminothiomorpholin-4-carboxamide 1-oxide]",91.5 nM,> 10000 nM
"CC(=O)N=S1(=O)CCN(C(=O)N(Cc2ccc(-c3nnc(C(F)F)o3)cn2)c2ccc(F)c(F)c2)CC1 [Compound 30, 1-(acetylimino)-N-((5-(5-(difluoromethyl)-1,3,4-oxadiazol-2-yl)pyridin-2-yl)methyl)-N-(3,4-difluorophenyl)thiomorpholin-4-carboxamide 1-oxide]",54.6 nM,> 10000 nM

# Next, values leading:
IC50 (human recombinant HDAC6),IC50 (human recombinant HDAC1),Compound
88.4 nM,> 10000 nM,"N=S1(=O)CCN(C(=O)N(Cc2ccc(-c3nnc(C(F)F)o3)cn2)c2ccc(F)cc2)CC1 [Compound 62, N-[[5-[5-(difluoromethyl)-1,3,4-oxadiazol-2-yl]-2-pyridyl]methyl]-N-(4-fluorophenyl)-1-imino-1-oxo-1,4-thiazinan-4-carboxamide]"
56 nM,> 10000 nM,"N=S1(=O)CC(N2C[C@@H]3C[C@H]2CN3C(=O)N(Cc2ccc(-c3nnc(C(F)F)o3)cn2)c2ccccc2)C1 (stereo partly drawn) [Compound 84, (1S,4S)—N-[[5-[5-(difluoromethyl)-1,3,4-oxadiazol-2-yl]-2-pyridyl]methyl]-5-(1-imino-1-oxo-thiethan-3-yl)-N-phenyl-2,5-diazabicyclo[2.2.1]heptan-2-carboxamide]"
30.8 nM,> 10000 nM,"N=S1(=O)CCN(S(=O)(=O)N(Cc2ccc(-c3nnc(C(F)F)o3)cn2)c2cccc(F)c2)CC1 [Compound 36, N-((5-(5-(difluoromethyl)-1,3,4-oxadiazol-2-yl)pyridin-2-yl)methyl)-N-(3-fluorophenyl)-1-iminothiomorpholin-4-sulfonamide 1-oxide]"
185 nM,> 10000 nM,"N=S1(=O)CCN(C(=O)N(Cc2ccc(-c3nnc(C(F)F)o3)cc2F)c2cccc(-c3cccnc3)c2)CC1 [Compound 47, N-(4-(5-(difluoromethyl)-1,3,4-oxadiazol-2-yl)-2-fluorobenzyl)-1-imino-N-(3-(pyridin-3-yl)phenyl)thiomorpholin-4-carboxamide 1-oxide]"
146 nM,> 10000 nM,"N=S1(=O)CCN(C(=O)N(Cc2ccc(-c3nnc(C(F)F)o3)nn2)c2cccc(F)c2)CC1 [Compound 80, N-[[6-[5-(difluoromethyl)-1,3,4-oxadiazol-2-yl]pyridazin-3-yl]methyl]-N-(3-fluorophenyl)-1-imino-1-oxo-1,4-thiazinan-4-carboxamide]"
51.6 nM,> 10000 nM,"N=S1(=O)CCN(S(=O)(=O)N(Cc2ncc(-c3nnc(C(F)F)o3)cc2F)c2ccc(F)cc2)CC1 [Compound 77, N-[[5-[5-(difluoromethyl)-1,3,4-oxadiazol-2-yl]-3-fluoro-2-pyridyl]methyl]-N-(4-fluorophenyl)-1-imino-1-oxo-1,4-thiazinan-4-sulfonamide]"
88.9 nM,> 10000 nM,"N=S1(=O)CCN(C(=O)N(Cc2ccc(-c3nnc(C(F)F)o3)cc2F)c2cccc(-c3cncs3)c2)CC1 [Compound 43, N-(4-(5-(difluoromethyl)-1,3,4-oxadiazol-2-yl)-2-fluorobenzyl)-1-imino-N-(3-(thiazole-5-yl)phenyl)thiomorpholin-4-carboxamide 1-oxide]"
63.6 nM,> 10000 nM,"N=S1(=O)CCN(CCS(=O)(=O)N(Cc2ccc(-c3nnc(C(F)F)o3)cc2F)c2ccccc2)CC1 [Compound 74, N-[[4-[5-(difluoromethyl)-1,3,4-oxadiazol-2-yl]-2-fluoro-phenyl]methyl]-2-(1-imino-1-oxo-1,4-thiazinan-4-yl)-N-phenyl-ethanesulfonamide]"
87.1 nM,> 10000 nM,"O=C(N=S1(=O)CCN(C(=O)N(Cc2ccc(-c3nnc(C(F)F)o3)nn2)c2cccc(F)c2)CC1)OCc1ccccc1 [Compound 79, Benzyl N-[4-[[6-[5-(difluoromethyl)-1,3,4-oxadiazol-2-yl]pyridazin-3-yl]methyl-(3-fluorophenyl)carbamoyl]-1-oxo-1,4-thiazinan-1-ylidene]carbamate]"
130 nM,> 10000 nM,"N=S1(=O)CCN(C(=O)N(Cc2ccc(-c3nnc(C(F)F)o3)cc2F)c2cccc(-c3ccco3)c2)CC1 [Compound 44, N-(4-(5-(difluoromethyl)-1,3,4-oxadiazol-2-yl)-2-fluorobenzyl)-N-(3-(furan-2-yl)phenyl)-1-iminothiomorpholin-4-carboxamide 1-oxide]"
–,> 10000 nM,"N=S1(=O)CC(N2C[C@@H]3C[C@H]2CN3c2c(N(Cc3ncc(-c4nnc(C(F)F)o4)cc3F)c3ccccc3)c(=O)c2=O)C1 (stereo partly drawn) [Compound 88, 3-[N-[[5-[5-(difluoromethyl)-1.3.4-oxadiazol-2-yl]-3-fluoro-2-pyridyl]methyl]anilino]-4-[(1S,4S)-5-(1-imino-1-oxo-thiethan-3-yl)-2,5-diazabicyclo[2.2.1]heptan-2-yl]cyclobut-3-en-1,2-dione]"
